Source: article PMC8406319, “The dCache Chemoreceptor TlpA of Helicobacter pylori Binds Multiple Attractant and Antagonistic Ligands via Distinct Sites” (mBio, 2021)
Where a name gives a salt, the structure may show the parent alone.

Key:
H. pylori PMSS1 ΔtlpA = assay: Temporal chemotaxis assay (direction changes), ΔtlpA mutant; type: cell-based, Helicobacter pylori; conditions: ligands 0.1-10 mM, controls 50 μM dipyridyl, 10 mM HCl
Method: (§1) Cultures of H. pylori PMSS1 WT and ΔtlpA strains were grown overnight, back-diluted, and then incubated until an OD600 of 0.12 to 0.15 was reached. Cultures were treated with water (Mock) or various concentrations of compounds, as indicated. For panels C and E, the pH of cysteine, thiamine, malic acid, and α-ketoglutarate stocks was adjusted using NaOH to match the pH of the water used for the untreated control. The cells were immediately filmed, and direction changes were counted over a 3-s swimming period in at least 100 cells per treatment from 3 biological replicates. Data are normalized to the values for the untreated control for each strain, as described in Materials and Methods. Error bars represent the standard errors of the means. *, P < 0.05; **, P < 0.01; ***, P < 0.001 (comparisons to the untreated control per strain using two-way ANOVA with Dunnett’s multiple-comparison test).
To determine if chemoattractant responses toward arginine, fumarate, and cysteine were TlpA dependent, the same tracking experiments were repeated with a mutant lacking tlpA (ΔtlpA).
(§2) Swimming behavior assays were done with H. pylori PMSS1 strains grown in BB10 as described above. Cultures grown overnight were diluted to an optical density at 600 nm (OD600) of 0.1 in fresh BB10 and then incubated with shaking as described above until an OD600 of 0.12 to 0.15 was reached. […] The number of direction changes in a bacterial swimming trajectory was enumerated over a 3-s interval to determine whether each putative ligand is sensed as an attractant or repellent or elicits no response ([20], [25][–][30]). […] Each control is sensed by chemoreceptors other than TlpA ([24], [25], [29], [31]). The pH of BB10 upon treatment was independently assessed using a Denver Instruments pH meter. Prior to realizing that chemotactic responses may be due to medium acidification, we resuspended all ligands in pure water. Therefore, to be able to compare the results to those of previous experiments, we continued resuspending acidified ligands in pure water and then adjusting the pH of the resuspended ligand using NaOH. Cultures were filmed immediately after ligand addition at a ×400 magnification using a Hamamatsu C4742-95 digital camera with μManager software (version 1.4.22), mounted on a Nikon Eclipse E600 phase-contrast microscope. For the competition chemotaxis assay, cultures of H. pylori and ligands were prepared as described above. However, 1 min after the addition of a nonchemoactive ligand at a final concentration of 10 mM, a chemoactive ligand was added at a final concentration of 10 mM, and the cultures were then filmed as described above. Videos were relabeled to blind the observer to the strain identity. For each sample, >100 3-s-long bacterial tracks from three independent cultures were analyzed manually to identify stops followed by direction changes. Data for all biological replicates under each condition were combined, and the average number of direction changes in 3 s and the standard error of the mean were calculated. For each strain, data were normalized to the values for the untreated control under each experimental condition. Statistical analysis of the data for treated versus untreated samples was performed using two-way analysis of variance (ANOVA) and Dunnett’s multiple-comparison test.

TlpALBD point mutants = assay: SPR binding affinity of TlpALBD point mutants relative to WT; set-up: species or system Helicobacter pylori SS1; conditions: vs WT
From the text: The periplasmic portion of TlpA (TlpALBD), amino acids 28 to 299, from Helicobacter pylori SS1 was cloned into a pBH4 expression vector (pBH4_TlpALBD) to generate an N-terminal 6×His-tagged construct, with a tobacco etch virus (TEV) protease site, under the control of isopropyl-β-D-thiogalactopyranoside (IPTG) ([19]). […] TlpALBD and all point mutants were purified as described previously by Sweeney et al. ([19]).
Purified TlpALBD was immobilized on a CM5 series S sensor chip, and binding affinities were tested using a Biacore S200 instrument (GE Healthcare) as described previously ([39], [57], [59]). Briefly, proteins were captured using an amine-coupling kit (GE Healthcare), in which the carboxylmethyl dextran matrix of the sensor chip was activated by the injection of a mixture of 0.2 M 1-ethyl-3-[(3-dimethylamino)propyl]-carbodiimide (EDC) and 0.05 M N-hydroxysuccinimide (NHS), followed by the neutralization of the remaining unreacted NHS ester groups by the injection of 1 M ethanolamine-HCl (pH 8.0). Purified TlpALBD was diluted in 10 mM sodium acetate buffer (pH 4.5) at a concentration of 100 μg/ml for immobilization to the chip. A total of 8,400 response units (RU) of TlpALBD were captured on flow cell 2. […] The data sets were analyzed using Biacore S200 evaluation software 2.0.2; sensorgrams were double-reference subtracted.

H. pylori PMSS1 WT = assay: Temporal chemotaxis assay (live-cell video microscopy, direction changes), WT; type: cell-based, Helicobacter pylori
Method: H. pylori chemotactic responses toward the seven putative TlpA-dependent ligands were examined by a live-cell video microscopy assay that measures the temporal chemotaxis response to test ligands. […] Acidic conditions are sensed by chemoreceptors other than TlpA ([24], [29], [31]) and potentially mask chemotactic responses to the ligands being tested.
as §1, with “For panels C and E, the pH of cysteine, thiamine, malic acid, and α-ketoglutarate stocks was adjusted using NaOH to match the pH of the water used for the untreated control.” left out
as §2, with “Prior to realizing that chemotactic responses may be due to medium acidification, we resuspended all ligands in pure water.” left out

TlpALBD = assay: Small-molecule ligand binding array; set-up: species or system Helicobacter pylori SS1; conditions: ligand binding array screen; n = 3
Method: Small-molecule arrays were prepared and performed as previously described ([57]). Briefly, 1 μg of purified TlpALBD in phosphate-buffered saline (PBS) (pH 7.2) was incubated with a molar concentration ratio (4:2:1) of anti-His antibody (Cell Signaling), followed by incubation with a secondary antibody (Thermo Scientific) for signal amplification. The protein-antibody mix was added to an Arrayit Superepoxy III glass substrate array blocked with PBS (pH 7.2) with 1% bovine serum albumin. […] Unbound protein was washed away with PBS with 0.05% Tween. […] Three biological replicates were performed, with a total of 12 data points for each glycan tested. Binding was classified as positive for a ligand if the relative fluorescence unit value was >1-fold above the mean background (defined as the average background of negative-control spots plus 3 standard deviations [SD]) and was statistically significant (P < 0.005 by Student’s t test). Small-molecule array slide preparation and analysis were done according to MIRAGE guidelines ([58]) (outlined in Table S5).
Classification Guidelines
1. Sample: Glycan Binding Sample
Origin: Helico bact er pyl ori SS1; produce d as a reco mbinant His -tagged protein in E.
The preparation of TlpA is exp lained in the Materials and Methods se ct ion: TlpA co nst ruct desi gn and protein purifica tion.
Sample Sample is a His Tagged protein co ntaining only the periplasm ic rece ptor domain, amino […]
Please see Materials and Methods: Li ga nd bi ndi ng arra y.
Proteins were co mplexe d with mouse anti-his antibody, with se co ndary and tertiary Alexa Fluor555 antibodies (rabbit anti-mouse , goat anti-rabbit) at a molar ratio of 4:2:1.
The protein/antibody co mplex was incu bated on ice for 10 mins prior to placi ng on the Assa y array. Arrays were performed with 1 µg of co mplexe d protein incu bated on the array for protoco l 20 min. Arrays were then wash ed 3 times in Array PBS (PBS + 2 mM MgCl2 + 2 mM CaCl2) then dried by ce ntrifugation for 3 min at 300 x g. Sca nning was performed usi ng an Innopsys InnoSca n 1100AL and analyze d usi ng Mapix (Innopsy s). Yes/ no binding was determined by si x posi tive replica te sp ots in three replica te exp eriments. […]
2.2 Small molecule Library […]
descr iption for Compounds printed in the amino aci d/small molecu le array for this st udy are list ed in […]
5.2 Small molecule array with “Map”
The array co nsi sts of triplica te su b-arrays of amino aci ds and sm all moleucl es (24 rows x 10 co lumns) with 400μm sp ot sp aci ng (ce ntre to ce ntre) with a minimum sp ot si ze of 100μm . Each sa mple is printed si x times, with each of the 3 su b-arrays incl uding at least Array layo ut si x negative co ntrol sa mples (print so lution only) and a posi tive co ntrol sa mples […]
Posi tive co ntrols provi de proof of su cce ssf ul immobiliza tion of the amine reagents and provi des for orientation for analysi s.
Sample Arrays are quality co ntrolled by a range of measu res. 1. Each printed array is post print identifica tion sca nned to co nfirm deposi tion of the sa mples on the array su rface prior to neutraliza tion and quality of the remaining sl ide su rface . 2. Post neutralize d sl ides are sca nned again to monitor co ntrol for remaining autofluoresce nce .
1. 6. Detector and Data Processing
Sca nning reso lution: […]
Sca n powers: Low lase r power. […]
analysi s Innopsys MAPIX.

| SMILES | Chemotactic response of ΔtlpA mutant (H. pylori PMSS1 ΔtlpA) | Change in binding affinity, any point mutant (TlpALBD point mutants) | Chemotactic response (direction changes vs mock) (H. pylori PMSS1 WT; WT, 0.1, 1, 10 mM tested, acidic ligand stocks pH neutralized with NaOH, 10 mM most significant) | Chemotactic response, ligand stock pH not adjusted (H. pylori PMSS1 WT; acidic in solution, unadjusted pH) | Array result (TlpALBD) |
| --- | --- | --- | --- | --- | --- |
| Cl [HCl, reference compound] | repellent responses | – | – | – | – |
| c1ccc(-c2ccccn2)nc1 [dipyridyl, 2,2′-dipyridyl, reference compound] | significant attractant | – | – | – | – |
| O=C(O)CCC(=O)C(=O)O [α-Ketoglutarate, α-ketoglutaric acid] | – | no appreciable change | no significant direction changes | significant TlpA-independent chemorepellent responses | + |
